Experiments:
[1] = system: lung metastasis of 4T1 cells; experiment: Breast cancer metastasis study; format: in vivo, NOD/SCID mice; details: 8 mg/kg intraperitoneally once a day
Method: Studies implicated that the process termed EMT is associated with features of CSCs, which are considered to be involved in metastasis, a major cause of cancer-associated deaths. 4T1 murine mammary carcinoma cells spontaneously produce highly metastatic tumors that can metastasize to the lung, liver, lymph nodes, and brain while the primary tumor is growing in situ. To determine the efficacy of B591 on tumor metastasis, the metastasis model was established by incubating 4T1 cells into the mammary gland of NOD/SCID mice and treated with 8 mg/kg of B591 intraperitoneally once a day. B591 decreased more than 50% of the metastatic tumors in the lung which spontaneously metastasize from the primary tumor in the mammary gland (Fig. 6a).
To establish the metastasis model, 3 × 10^5 of 4T1 cells were incubated into the mammary fat pad of NOD/SCID mice. When tumor volume reached about 50 mm^3, mice were randomly divided into two groups for treatment with 8 mg/kg of B591 or vehicle (i.p.) for 2 months. The metastatic tumors in lung were stained with ink as previously reported.

[2] = system: PIP3/PI(4,5)P2 ratio in HCT116 cells; experiment: Cellular PI3K kinase assay (PIP3 and PI(4,5)P2 ELISA); format: cell-based; details: 10 h treatment
Method: Cells were seeded at density of 3 × 10^7 cells/150 mm dish. After treatment with different concentrations of B591 for 10 h, the media was removed and 10 ml of ice-cold 0.5 M TCA was immediately added. Incubate cells on ice for 5 min. Cells were scraped and centrifuged at 3000 rpm for 7 min at 4 ℃. The pellet was resuspended in 3 ml of 5% […] acid/1 mM EDTA, vortexed for 30 s, and centrifuged at 3000 rpm for 5 min. The supernatant was discarded and the cells was washed one more time. Afterward, neutral lipids were extracted adding 3 ml of MeOH:CHCl3 (2:1) and continuously vortexing for 10 min at room temperature. Extracts were centrifuged at 3000 rpm for 5 min, the supernatant was discarded, and this extraction step was repeated one more time. The acidic lipids were extracted adding 2.25 ml MeOH:CHCl3:12 M HCl (80:40:1) with continuous vortexing over 25 min at room temperature. Extracts were centrifuged at 3000 rpm for 5 min and the supernatant was transferred to a new 15 ml tube; 0.75 ml of CHCl3 and 1.35 ml of 0.1 M HCl were added to the supernatant, vortexed, and centrifuged at 3000 rpm for 5 min to separate organic and aqueous phases. […] Once phospholipids were isolated from cells, PIP3 and PI(4,5)P2 levels were measured using ELISA kits (Echelon, K-2500s and K4500) according to the manufacturer’s instructions.

[3] = system: ALDHhigh fractions in SUM-159PT cells; experiment: ALDH activity assay (ALDEFLUOR); format: cell-based; details: 4 µM
Method: Cells were treated with B591 for 24 h, then the cell suspension was incubated with 20 μl of CD44-APC (#559942, BD Pharmingen, Franklin Lakes, NJ, USA) and 20 μl of CD24-PE (#555428, BD Pharmingen) antibodies for 30 min in dark at 4 ℃. Phenotype was detected by BD FACSCalibur, and data was analyzed with Flowjo. ALDH activity was analyzed with ALDEFLUOR Kit (STEMCELL Technologies, Vancouver, BC, Canada) according to the manufacture’s protocol.

[4] = molecular target: PRKCQ (PKC theta) (Homo sapiens, UniProt Q04759); experiment: Biochemical kinase profiling (Life Technologies)
Sequence of PRKCQ (PKC theta) (Q04759 whole entry): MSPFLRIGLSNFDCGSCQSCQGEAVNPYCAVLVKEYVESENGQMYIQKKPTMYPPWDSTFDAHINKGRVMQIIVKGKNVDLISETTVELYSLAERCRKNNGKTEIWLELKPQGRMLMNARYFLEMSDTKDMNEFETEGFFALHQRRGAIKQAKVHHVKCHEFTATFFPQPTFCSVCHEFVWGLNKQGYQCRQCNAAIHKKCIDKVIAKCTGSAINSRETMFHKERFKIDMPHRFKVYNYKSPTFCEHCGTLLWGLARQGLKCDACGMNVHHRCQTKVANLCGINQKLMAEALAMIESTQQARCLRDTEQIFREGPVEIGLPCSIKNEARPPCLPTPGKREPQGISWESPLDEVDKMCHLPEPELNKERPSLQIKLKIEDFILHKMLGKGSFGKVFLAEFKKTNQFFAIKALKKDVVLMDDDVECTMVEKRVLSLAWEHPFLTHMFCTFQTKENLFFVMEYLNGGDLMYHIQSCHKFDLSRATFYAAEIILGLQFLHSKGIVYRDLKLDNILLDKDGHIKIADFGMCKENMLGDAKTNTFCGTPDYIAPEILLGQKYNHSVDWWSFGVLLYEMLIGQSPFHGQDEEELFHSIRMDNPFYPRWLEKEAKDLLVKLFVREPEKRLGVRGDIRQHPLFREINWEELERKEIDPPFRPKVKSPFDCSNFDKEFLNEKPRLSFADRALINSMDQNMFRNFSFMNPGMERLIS
Method: (§1) Purified PI3K Class I Lipid Kinase, including p110α/p85α, p110β/p85α, p110γ, and p110δ/p85α (Promega, Madison, WI, USA), was respectively incubated with B591 for 30 min at room temperature. The activity of PI3K was evaluated using a PI3-Kinase Activity ELISA kit (K-1000s, Echelon, Salt Lake City, UT, USA) according to the manufacture’s instructions. The assay is a competitive ELISA in which the signal is inversely proportional to the amount of PI(3,4,5)P3 produced. After the PI3-Kinase reactions are complete, reaction products are first mixed and incubated with a PI(3,4,5)P3 detector protein, then added to the PI(3,4,5)P3-coated microplate for competitive binding. A peroxidase-linked secondary detector and colorimetric detection is used to detect PI(3,4,5)P3 detector binding to the plate. The colorimetric signal is inversely proportional to the amount of PI(3,4,5)P3 produced by PI3-Kinase. The absorbance was measured at 450 nm with a Multilabel Reader (PerkinElmer, Waltham, MA, USA). ATP competition assays were executed with varying concentrations of ATP, and five concentrations of ATP were 5 μM, 25 μM, 50 μM, 100 μM, and 200 μM respectively. The IC50 values for inhibition of PI3Kβ by B591 were determined at indicated concentrations of ATP. In addition, B591 selectivity was tested against 39 kinases at Life Technologies.

[5] = molecular target: T1, FLT1 (VEGFR1) (Homo sapiens, UniProt P17948); experiment: Biochemical kinase profiling (Life Technologies)
T1 construct: purchased Life Technologies
T1 sequence (P17948 27-1338): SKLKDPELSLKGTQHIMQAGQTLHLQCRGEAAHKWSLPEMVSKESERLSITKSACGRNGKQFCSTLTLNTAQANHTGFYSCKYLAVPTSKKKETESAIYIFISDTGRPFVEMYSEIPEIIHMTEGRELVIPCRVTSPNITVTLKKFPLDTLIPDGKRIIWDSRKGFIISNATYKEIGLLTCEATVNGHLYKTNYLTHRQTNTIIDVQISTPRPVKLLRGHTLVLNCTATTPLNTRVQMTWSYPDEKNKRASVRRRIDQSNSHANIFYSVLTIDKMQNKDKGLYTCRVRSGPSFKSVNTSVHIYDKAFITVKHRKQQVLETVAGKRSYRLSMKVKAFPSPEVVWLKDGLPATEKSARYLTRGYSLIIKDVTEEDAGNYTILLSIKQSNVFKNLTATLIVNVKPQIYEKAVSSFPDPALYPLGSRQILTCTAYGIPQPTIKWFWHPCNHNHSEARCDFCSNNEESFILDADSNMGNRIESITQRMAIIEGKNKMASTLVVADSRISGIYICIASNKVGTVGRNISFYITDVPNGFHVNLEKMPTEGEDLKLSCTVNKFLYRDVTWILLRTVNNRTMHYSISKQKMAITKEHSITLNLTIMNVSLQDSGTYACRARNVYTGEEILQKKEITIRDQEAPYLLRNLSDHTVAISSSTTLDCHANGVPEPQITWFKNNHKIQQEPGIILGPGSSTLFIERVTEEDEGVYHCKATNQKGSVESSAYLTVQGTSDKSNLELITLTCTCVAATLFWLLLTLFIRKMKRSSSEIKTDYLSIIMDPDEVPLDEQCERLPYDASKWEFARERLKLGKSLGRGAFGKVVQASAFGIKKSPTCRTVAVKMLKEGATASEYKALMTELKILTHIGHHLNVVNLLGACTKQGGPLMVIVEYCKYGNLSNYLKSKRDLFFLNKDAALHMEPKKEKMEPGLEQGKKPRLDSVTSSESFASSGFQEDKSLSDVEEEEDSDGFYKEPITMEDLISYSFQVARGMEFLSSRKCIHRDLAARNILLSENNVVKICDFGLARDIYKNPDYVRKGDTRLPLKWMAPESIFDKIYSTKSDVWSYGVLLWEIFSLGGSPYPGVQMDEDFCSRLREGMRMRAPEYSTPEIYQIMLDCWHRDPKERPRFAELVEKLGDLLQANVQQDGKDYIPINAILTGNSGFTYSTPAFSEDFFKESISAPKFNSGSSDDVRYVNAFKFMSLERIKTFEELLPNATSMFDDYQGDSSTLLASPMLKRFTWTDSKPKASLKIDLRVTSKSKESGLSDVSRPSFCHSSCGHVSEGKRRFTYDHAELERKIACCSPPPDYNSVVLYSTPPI
Method: as §1

[6] = molecular target: T2, EPHA8 (Homo sapiens, UniProt P29322); experiment: Biochemical kinase profiling (Life Technologies)
T2 construct: purchased Life Technologies
T2 sequence (P29322 28-1005): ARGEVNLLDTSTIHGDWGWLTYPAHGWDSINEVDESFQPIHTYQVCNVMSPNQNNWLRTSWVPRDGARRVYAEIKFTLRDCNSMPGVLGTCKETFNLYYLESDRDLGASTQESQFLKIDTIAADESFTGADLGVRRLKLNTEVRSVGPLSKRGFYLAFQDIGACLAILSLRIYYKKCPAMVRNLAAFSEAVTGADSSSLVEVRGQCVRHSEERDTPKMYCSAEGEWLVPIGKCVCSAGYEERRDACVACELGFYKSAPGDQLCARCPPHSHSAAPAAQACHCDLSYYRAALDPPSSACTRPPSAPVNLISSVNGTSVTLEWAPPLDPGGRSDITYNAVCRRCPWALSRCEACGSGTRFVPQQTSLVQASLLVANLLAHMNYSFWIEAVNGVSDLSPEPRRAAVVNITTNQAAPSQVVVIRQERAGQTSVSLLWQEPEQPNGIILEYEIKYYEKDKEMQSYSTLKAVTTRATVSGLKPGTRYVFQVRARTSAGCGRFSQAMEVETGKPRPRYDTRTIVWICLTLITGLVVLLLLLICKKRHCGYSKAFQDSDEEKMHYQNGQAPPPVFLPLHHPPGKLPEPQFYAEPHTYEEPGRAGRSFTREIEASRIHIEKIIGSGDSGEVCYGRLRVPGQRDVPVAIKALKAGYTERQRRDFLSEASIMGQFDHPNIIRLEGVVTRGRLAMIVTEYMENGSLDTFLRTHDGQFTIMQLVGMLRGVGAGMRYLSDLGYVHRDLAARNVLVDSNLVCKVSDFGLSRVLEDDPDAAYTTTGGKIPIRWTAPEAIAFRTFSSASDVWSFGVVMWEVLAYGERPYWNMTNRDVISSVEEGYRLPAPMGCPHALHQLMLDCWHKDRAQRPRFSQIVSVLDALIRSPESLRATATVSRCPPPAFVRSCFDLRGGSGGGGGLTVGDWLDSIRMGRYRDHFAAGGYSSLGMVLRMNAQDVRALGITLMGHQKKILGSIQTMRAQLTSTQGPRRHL
Method: as §1

[7] = molecular target: T3, RPS6KB1 (p70S6K) (Homo sapiens, UniProt P23443); experiment: Biochemical kinase profiling (Life Technologies)
T3 construct: purchased Life Technologies
T3 sequence (P23443 whole entry): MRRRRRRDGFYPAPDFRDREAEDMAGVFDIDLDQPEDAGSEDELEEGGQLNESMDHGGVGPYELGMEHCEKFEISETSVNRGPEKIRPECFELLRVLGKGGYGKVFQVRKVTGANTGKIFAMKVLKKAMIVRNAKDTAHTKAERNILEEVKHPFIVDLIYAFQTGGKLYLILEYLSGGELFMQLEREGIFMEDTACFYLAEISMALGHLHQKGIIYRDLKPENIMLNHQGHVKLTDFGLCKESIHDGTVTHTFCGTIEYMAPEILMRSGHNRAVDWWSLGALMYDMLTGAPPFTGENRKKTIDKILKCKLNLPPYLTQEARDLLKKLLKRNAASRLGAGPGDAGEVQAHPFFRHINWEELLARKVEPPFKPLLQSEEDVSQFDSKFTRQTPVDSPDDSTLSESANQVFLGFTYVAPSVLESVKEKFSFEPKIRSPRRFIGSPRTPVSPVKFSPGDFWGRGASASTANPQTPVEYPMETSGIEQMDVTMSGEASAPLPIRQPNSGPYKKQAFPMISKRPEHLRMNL
Method: as §1

IC50 for decrease of PIP3/PI(4,5)P2 ratio [2]: 1.910 µM
IC50 [4]: > 500 µM
IC50 [5]: > 500 µM
IC50 [6]: > 500 µM
IC50 [7]: > 500 µM
SMILES: Cc1cc2c(cc1C)[n+](Cc1ccccc1Br)cn2Cc1ccc2c(c1)CCO2.[Br-] [B591, 3-(2-bromobenzyl)-1-((2,3-dihydrobenzofuran-5-yl)methyl) -5,6-dimethyl-1H-benzo[d]imidazol-3-ium bromide]
Decrease of metastatic tumors in the lung [1]: more than 50%
Reduction of ALDHhigh fractions [3]: 90%
